This is an account of results in article PMC8105722 (The Journal of Experimental Medicine, 2021).

The target in the test is Rv0812 (Mycobacterium tuberculosis, UniProt Q79FW0).
Rv0812, sequence (Q79FW0 whole entry): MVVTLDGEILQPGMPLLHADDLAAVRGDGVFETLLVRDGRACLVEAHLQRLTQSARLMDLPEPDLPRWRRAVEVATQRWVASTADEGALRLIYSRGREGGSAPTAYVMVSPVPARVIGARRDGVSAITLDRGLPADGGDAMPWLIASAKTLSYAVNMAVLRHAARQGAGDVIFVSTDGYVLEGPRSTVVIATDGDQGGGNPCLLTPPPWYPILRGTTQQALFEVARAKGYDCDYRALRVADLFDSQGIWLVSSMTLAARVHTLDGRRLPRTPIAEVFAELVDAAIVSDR

On to `Cc1ncc(COP(=O)(O)O)c(C=O)c1O` [PLP], for which the “X-ray crystal structure (cocrystal with 0.2 mM PLP)” value is given as “PLP was fit into the corresponding electron density”.
